Molecules are shown by their SMILES. pIC50: −log10 of the molar value.

One data set addresses CYP2D6 (Homo sapiens, UniProt P10635). In words: Inhibition of human CYP2D6 assessed as remaining enzyme activity at 10 uM preincubated for 5 mins followed by Vivid CYP substrate addition measured after 20 mins by fluorescence assay relative to control. It is filed as ADME. The conditions noted are these: probe Vivid CYP substrate, read-out: Activity.
In data set [1] the target is Translocator protein (Mus musculus) (UniProt P50637). In words: Inhibition of TSPO in mouse HT22 cells assessed as recovery of ATP production at 5 uM preincubated for 10 mins followed by amyloid beta (1 to 42) stimulation and measured after 7 hrs by luciferase based assay relative to control. Type of data set: cell-based. On the set-up: scale not given: the % may be the effect or the level left.

A short description of data set [2]: Cytotoxicity against mouse HT22 cells as cell viability at 5 uM after 24 hrs by MTT assay relative to control. Type of data set: cell-based, HT-22. To be noted: read-out: Activity. (In general: Formazan colour is commonly taken as a measure of viable cells.)
Another data set has as its target CYP2C19 (Homo sapiens, UniProt P33261). In words: Inhibition of human CYP2C19 assessed as remaining enzyme activity at 10 uM preincubated for 5 mins followed by Vivid CYP substrate addition measured after 20 mins by fluorescence assay relative to control. It is filed as ADME. The conditions noted are these: probe Vivid CYP substrate, read-out: Activity.
For a further data set, the target named is T1, CYP1A2 (Homo sapiens, UniProt P05177).
T1 sequence (P05177 whole entry): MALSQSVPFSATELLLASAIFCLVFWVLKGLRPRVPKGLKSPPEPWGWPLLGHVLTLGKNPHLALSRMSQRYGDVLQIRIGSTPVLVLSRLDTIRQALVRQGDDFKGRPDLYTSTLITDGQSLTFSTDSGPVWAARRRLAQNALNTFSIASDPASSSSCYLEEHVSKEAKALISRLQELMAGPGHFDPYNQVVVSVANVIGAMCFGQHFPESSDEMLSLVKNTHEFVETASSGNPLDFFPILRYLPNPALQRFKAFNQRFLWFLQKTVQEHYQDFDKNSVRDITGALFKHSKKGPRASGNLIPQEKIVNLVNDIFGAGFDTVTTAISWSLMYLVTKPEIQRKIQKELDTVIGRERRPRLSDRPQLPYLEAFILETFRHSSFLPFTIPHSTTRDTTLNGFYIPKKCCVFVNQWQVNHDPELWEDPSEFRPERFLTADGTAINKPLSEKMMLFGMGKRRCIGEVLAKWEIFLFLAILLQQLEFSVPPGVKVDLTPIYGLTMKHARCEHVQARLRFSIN
In words: Inhibition of human CYP1A2 assessed as remaining enzyme activity at 10 uM preincubated for 5 mins followed by Vivid CYP substrate addition measured after 20 mins by fluorescence assay relative to control. It is filed as ADME. To be noted: probe Vivid CYP substrate, read-out: Activity.

The next data set concerns the target Translocator protein (Rattus norvegicus, UniProt P16257). Kind of data set: Displacement of [3H]PK11195 from TSPO in Sprague-Dawley rat cerebral cortex membranes after 60 mins by liquid scintillation counting analysis. On the set-up: species or system Membrane. In general terms: Displacement assays read how much labelled ligand stays bound in the presence of the test substance.

For data set [3], the target named is Translocator protein (Mus musculus) (UniProt P50637). Kind of data set: Inhibition of TSPO in mouse HT22 cells assessed as reduction in amyloid beta (1 to 42) (unknown origin) induced mitochondrial permeability transition pore formation by measuring increase in green to red fluorescence ratio at 5 uM pretreated for 10 mins followed by amyloid beta (1 to 42) stimulation and measured at 1 hr interval for 3 hrs by JC-1 dye based fluorescence assay relative to control. Type of data set: cell-based. On the set-up: scale not given: the % may be the effect or the level left.

The target of a further data set is CYP2C9 (Homo sapiens, UniProt P11712). Kind of data set: Inhibition of human CYP2C9 assessed as remaining enzyme activity at 10 uM preincubated for 5 mins followed by Vivid CYP substrate addition measured after 20 mins by fluorescence assay relative to control. It is filed as ADME. To be noted: probe Vivid CYP substrate, read-out: Activity.
Another data set concerns the target CYP3A4 (Homo sapiens, UniProt P08684). Kind of data set: Inhibition of human CYP3A4 assessed as remaining enzyme activity at 10 uM preincubated for 5 mins followed by Vivid CYP substrate addition measured after 20 mins by fluorescence assay relative to control. It is filed as ADME. To be noted: probe Vivid CYP substrate, read-out: Activity.

Chain of Translocator protein (Mus musculus) (P50637 whole entry, looked up): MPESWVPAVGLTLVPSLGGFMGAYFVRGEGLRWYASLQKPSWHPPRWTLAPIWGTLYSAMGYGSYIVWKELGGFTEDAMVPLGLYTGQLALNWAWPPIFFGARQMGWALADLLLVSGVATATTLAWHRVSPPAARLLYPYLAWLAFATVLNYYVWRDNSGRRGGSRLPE
Chain of CYP2C9 (P11712 whole entry): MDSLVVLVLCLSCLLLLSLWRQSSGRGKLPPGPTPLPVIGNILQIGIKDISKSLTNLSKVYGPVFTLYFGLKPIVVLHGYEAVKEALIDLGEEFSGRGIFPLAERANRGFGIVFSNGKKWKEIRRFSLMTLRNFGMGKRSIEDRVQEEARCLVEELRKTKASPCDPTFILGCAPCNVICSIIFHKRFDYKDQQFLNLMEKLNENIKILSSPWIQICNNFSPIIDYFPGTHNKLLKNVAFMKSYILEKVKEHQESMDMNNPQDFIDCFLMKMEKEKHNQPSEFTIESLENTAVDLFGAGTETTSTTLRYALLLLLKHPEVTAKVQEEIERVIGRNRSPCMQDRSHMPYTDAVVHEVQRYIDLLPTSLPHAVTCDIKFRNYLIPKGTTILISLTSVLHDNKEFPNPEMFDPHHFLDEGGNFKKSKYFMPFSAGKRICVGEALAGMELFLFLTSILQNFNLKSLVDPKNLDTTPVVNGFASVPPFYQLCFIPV
Chain of CYP3A4 (P08684 whole entry): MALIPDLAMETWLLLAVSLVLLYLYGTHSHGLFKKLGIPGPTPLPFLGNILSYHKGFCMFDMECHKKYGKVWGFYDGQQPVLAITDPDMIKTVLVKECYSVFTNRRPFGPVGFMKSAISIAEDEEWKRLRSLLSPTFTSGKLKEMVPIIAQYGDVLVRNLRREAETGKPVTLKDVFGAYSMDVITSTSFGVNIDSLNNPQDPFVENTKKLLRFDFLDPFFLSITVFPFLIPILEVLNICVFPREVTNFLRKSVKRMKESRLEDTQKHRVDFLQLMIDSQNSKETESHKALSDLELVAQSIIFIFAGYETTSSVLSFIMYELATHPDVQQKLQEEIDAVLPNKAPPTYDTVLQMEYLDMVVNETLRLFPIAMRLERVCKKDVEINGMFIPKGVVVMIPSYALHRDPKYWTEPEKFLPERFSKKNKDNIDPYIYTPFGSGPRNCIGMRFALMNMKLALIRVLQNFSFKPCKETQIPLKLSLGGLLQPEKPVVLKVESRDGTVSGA
Chain of CYP2C19 (P33261 whole entry): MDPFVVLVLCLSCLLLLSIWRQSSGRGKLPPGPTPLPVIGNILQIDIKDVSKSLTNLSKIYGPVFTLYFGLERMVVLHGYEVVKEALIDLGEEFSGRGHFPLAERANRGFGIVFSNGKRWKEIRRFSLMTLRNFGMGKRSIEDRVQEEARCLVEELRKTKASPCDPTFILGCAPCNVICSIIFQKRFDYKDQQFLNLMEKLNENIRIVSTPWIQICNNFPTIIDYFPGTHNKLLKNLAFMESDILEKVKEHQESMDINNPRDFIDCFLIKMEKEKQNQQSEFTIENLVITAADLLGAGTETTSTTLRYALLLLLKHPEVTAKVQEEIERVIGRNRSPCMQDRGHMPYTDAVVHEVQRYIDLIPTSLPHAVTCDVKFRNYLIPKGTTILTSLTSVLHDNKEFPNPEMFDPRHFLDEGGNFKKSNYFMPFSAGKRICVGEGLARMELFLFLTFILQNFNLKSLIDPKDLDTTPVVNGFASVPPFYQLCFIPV
Chain of Translocator protein (P16257 whole entry, looked up): as the sequence (P50637 whole entry, looked up) above, with P2S, E3Q, V67I, D77E, A110V, L113M, V149M, P168T counted along it
Chain of CYP2D6 (P10635 whole entry): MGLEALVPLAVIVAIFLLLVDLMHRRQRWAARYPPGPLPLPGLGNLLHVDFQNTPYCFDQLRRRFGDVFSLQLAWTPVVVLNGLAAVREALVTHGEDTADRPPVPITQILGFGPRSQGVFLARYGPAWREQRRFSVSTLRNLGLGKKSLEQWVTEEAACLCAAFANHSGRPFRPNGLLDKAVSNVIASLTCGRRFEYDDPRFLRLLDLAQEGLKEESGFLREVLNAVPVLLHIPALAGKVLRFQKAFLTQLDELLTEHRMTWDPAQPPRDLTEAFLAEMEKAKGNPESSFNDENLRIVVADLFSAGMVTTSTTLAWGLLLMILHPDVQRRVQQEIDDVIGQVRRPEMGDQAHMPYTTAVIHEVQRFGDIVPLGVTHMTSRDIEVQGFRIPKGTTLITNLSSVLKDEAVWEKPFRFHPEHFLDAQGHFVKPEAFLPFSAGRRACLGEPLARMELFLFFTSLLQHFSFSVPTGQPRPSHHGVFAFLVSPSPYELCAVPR

Consider `CCc1nnc(SCC(=O)N2CCN(c3ccccc3)CC2)c2cc3sc(C)cc3n12`, for which the activity at 20 min, 10 µM at CYP2D6 stood at 81.7%; on CYP2C19 it was 20.3%; on CYP1A2 it was 40.1%; on CYP2C9 it was 38.8%; at CYP3A4, 20.6%. Besides, the values for the Activity in data set [1] and in [3] were 41% and 70%, respectively. Also, in data set [2], the viability at 24 h, 5 µM worked out at 99%. The pIC50 (in general, the IC50 on a negative log10 scale, so that one unit is a factor of ten) at Translocator protein was 5.65.

`CCN(Cc1ccccc1)C(=O)CSc1nnc(C)n2c1cc1sc(C)cc12`: the activity at 20 min, 10 µM on CYP2D6 amounted to 38.4%; at CYP2C19, 10.2%; on CYP1A2, 70.9%; at CYP2C9, 21.1%; on CYP3A4 it was 51.4%. Also, the Activity in data set [1] was 26%; in data set [3] it was 66%. Moreover, in data set [2], the viability at 24 h, 5 µM was 97%. On Translocator protein, this compound gave a pIC50 of 6.91.

Turning to `COc1ccc(NC(=O)Cn2nc(C)n3c(cc4sc(C)cc43)c2=O)cc1OC`, the Activity in data set [1] was -8%; in [3] it was 52%. Also, in [2], the viability at 24 h, 5 µM came out at 97%.

For `CCc1nnc(SCC(=O)Nc2ccccc2)c2cc3sc(Cl)cc3n12`, the Activity was 4% in data set [1] and 66% in data set [3]. Also, the viability at 24 h, 5 µM in data set [2] came out at 95%.

Consider `Cc1nnc(SCC(=O)NCc2ccccc2)c2cc3sccc3n12`, for which the Activity was 6% in data set [1] and 48% in [3]. Moreover, the viability at 24 h, 5 µM in [2] worked out at 73%.

Turning to `O=S(=O)(c1ccccc1Cl)N1CCCC1c1cccs1` (stereo not given), the values for the Activity in data set [1] and in data set [3] were -61% and 67%, respectively. For the same compound, the viability at 24 h, 5 µM in [2] amounted to 114%.

As to `CCc1nnc(SCC(=O)Nc2ccc(OC)c(OC)c2)c2cc3sc(C)cc3n12`, the activity at 20 min, 10 µM was 54.2% at CYP2D6; 30.9% at CYP2C19; 65.5% on CYP1A2; 50% at CYP2C9; 44.7% at CYP3A4. Further, the Activity in data set [1] stood at 18%; in data set [3] it was 62%. Moreover, the viability at 24 h, 5 µM in data set [2] was 91%. Moreover, the pIC50 on Translocator protein was less than 5.00.

For the compound `Cc1cc2c(cc3c(SCC(=O)NCc4ccccc4)nnc(C)n32)s1`, the values for the Activity in data set [1] and in data set [3] were -50% and 35%, respectively. The viability at 24 h, 5 µM in [2] turned out to be 61%.

In the case of `Cn1c(=O)oc2cc(NS(=O)(=O)Cc3ccco3)ccc21`, the Activity came to 14% in data set [1] and 41% in [3]. In addition, the viability at 24 h, 5 µM in data set [2] was 103%.

`O=C(Cc1coc2ccc3ccccc3c12)NCc1ccco1`: the Activity in data set [1] was -3%; in data set [3] it was 85%. In addition, in data set [2], the viability at 24 h, 5 µM was determined as 96%.

Consider `CCc1nn(CC(=O)N(CC)Cc2ccccc2)c(=O)c2cc3sccc3n12`, for which the results for the Activity in data set [1] and in data set [3] were -11% and 57%, respectively. For the same compound, the viability at 24 h, 5 µM in [2] came to 100%.

As for `CCc1nn(CC(=O)N2CCN(c3ccccc3)CC2)c(=O)c2cc3sccc3n12`, the Activity in [1] was 9%; in [3], 56%. Besides, the viability at 24 h, 5 µM in data set [2] amounted to 91%.

`Cc1cc2c(cc3c(=O)n(CC(=O)N(C)C)nc(C)n32)s1`: the Activity was 0% in data set [1] and 17% in data set [3]. Besides, the viability at 24 h, 5 µM in data set [2] stood at 96%.

As to `CCc1nnc(SCC(=O)Nc2ccc(OC)c(OC)c2)c2cc3sc(Cl)cc3n12`, the Activity in data set [1] worked out at 7%; in [3] it was 69%. Further, the viability at 24 h, 5 µM in data set [2] was 94%.

On to `Cc1cc2c(cc3c(SCC(=O)N4CCN(c5ccccc5)CC4)nnc(C)n32)s1`, for which the Activity was -9% in data set [1] and 69% in data set [3]. Also, the viability at 24 h, 5 µM in data set [2] worked out at 99%.

Take `Cc1cc2c(cc3c(SCC(=O)N(C)c4ccccc4)nnc(C)n32)s1`: the figures for the Activity in [1] and in data set [3] were 33% and 56%, respectively. Besides, the viability at 24 h, 5 µM in data set [2] was 87%.

`Cc1cc2c(cc3c(SCC(=O)Nc4ccccc4)nnc(C)n32)s1`: the values for the Activity in [1] and in data set [3] were 19% and 58%, respectively. The viability at 24 h, 5 µM in data set [2] was found to be 88%.

As to `CCc1nnc(SCC(=O)N(CC)Cc2ccccc2)c2cc3sc(C)cc3n12`, the Activity in data set [1] was found to be 25%; in [3], 67%. The viability at 24 h, 5 µM in data set [2] was 82%.

Take `Cc1nnc(SCC(=O)Nc2ccccc2)c2cc3sccc3n12`: the Activity in data set [1] was found to be 5%; in [3], 59%. Besides, in data set [2], the viability at 24 h, 5 µM is 96%.

As to `CCc1nnc(SCC(=O)N2CCN(c3ccccc3)CC2)c2cc3sccc3n12`, the Activity was -4% in data set [1] and 53% in data set [3]. In addition, the viability at 24 h, 5 µM in data set [2] came to 68%.

Turning to `CCc1nnc(SCC(=O)N(CC)Cc2ccccc2)c2cc3sccc3n12`, the Activity in data set [1] is 1%; in [3], 56%. For the same compound, the viability at 24 h, 5 µM in data set [2] turned out to be 99%.

On to `CCc1nnc(SCC(=O)NCc2ccccc2)c2cc3sccc3n12`, for which the Activity in data set [1] is -15%; in data set [3], 50%. Further, in data set [2], the viability at 24 h, 5 µM was determined as 54%.

Consider `COc1ccc(NC(=O)CSc2nnc(C)n3c2cc2sccc23)cc1OC`, for which the Activity in [1] was 0%; in data set [3], 55%. In data set [2], the viability at 24 h, 5 µM stood at 99%.

For the compound `CCc1nn(CC(=O)N(C)c2ccccc2)c(=O)c2cc3sccc3n12`, the Activity in data set [1] is -9%; in [3] it was 50%. The viability at 24 h, 5 µM in data set [2] amounted to 93%.

On to `CCc1nnc(SCC(=O)Nc2ccccc2)c2cc3sc(C)cc3n12`, for which the activity at 20 min, 10 µM on CYP2D6 came to 17%; on CYP2C19 it was 44.1%; on CYP1A2, 49.2%; at CYP2C9, 95.9%; at CYP3A4, 34.1%. Further, the Activity came out at 22% in data set [1] and 61% in data set [3]. Further, the viability at 24 h, 5 µM in data set [2] turned out to be 92%. The same compound had a pIC50 on Translocator protein of 5.78.

Regarding `Cc1nnc(SCC(=O)N2CCN(c3ccccc3)CC2)c2cc3sccc3n12`, the values for the Activity in [1] and in [3] were 0% and 59%, respectively. In addition, the viability at 24 h, 5 µM in data set [2] amounted to 98%.

With `Cc1nnc(SCC(=O)N(C)c2ccccc2)c2cc3sccc3n12`, the activity at 20 min, 10 µM was 48.8% at CYP2D6; 28.8% on CYP2C19; 46.8% on CYP1A2; 124% at CYP2C9; 41.3% on CYP3A4. The Activity amounted to 25% in data set [1] and 56% in data set [3]. In addition, the viability at 24 h, 5 µM in [2] is 99%. At Translocator protein, this compound had a pIC50 of 7.26.

Turning to `COc1ccccc1C1NC(=S)NC(C)=C1C(=O)OCc1ccccc1` (stereo not given), the results for the Activity in data set [1] and in [3] were 0% and 56%, respectively. Also, the viability at 24 h, 5 µM in [2] came to 88%.

With `CCc1nnc(SCC(=O)NCc2ccccc2)c2cc3sc(C)cc3n12`, the figures for the Activity in data set [1] and in data set [3] were -3% and 55%, respectively. In addition, the viability at 24 h, 5 µM in data set [2] came to 29%.

Regarding `CCc1nn(CC(=O)N(C)C)c(=O)c2cc3sccc3n12`, the Activity in data set [1] was -3%; in data set [3], 12%. Also, the viability at 24 h, 5 µM in data set [2] came out at 98%.

The values are drawn from ChEMBL document CHEMBL4130502, “Discovery of thienopyrrolotriazine derivatives to protect mitochondrial function against Aβ-induced neurotoxicity” (Eur J Med Chem, 2017).
